Reference: article PMC3397407 (Journal of Medicinal Chemistry, 2012)

Tests used:
[1] = In vivo disposition and metabolites of 3 in rats after gavage; design: species or system rat; settings: after gavage of 3
[2] = test system: NFκB; assay: NFκB luciferase assay; format: cell-based, Human
[3] = 10 µM, glutathione 10 mM, NADPH, 60 min
[4] = rat, gavage 40 mg/kg daily for 3 days; cited from earlier work
[5] = Metabolic stability with pooled human liver microsomes
[6] = test system: RXRE transcriptional activity (COS-1 cells transfected with pRXRE, phRXRα and pRL); assay: RXRE-luciferase reporter gene assay; settings: for absolute activity induced (firefly luciferase, not normalized): 24 h incubation conditions; for maximum enhancement of RXRE transcriptional activity: after 4–6 h of incubation
[7] = Chemical stability of synthetic metabolite 4; format: physicochemical; settings: air and moisture or DMSO solution

CC(=O)Nc1ccc2c3c(n(CCCO)c(=O)c2c1)-c1ccccc1C3=O [Compound 9, N-[6-(3-Hydroxypropyl)-5,11-dioxo-6,11-dihydro-5H-indeno[1,2-c]isoquinolin-3-yl]acetamide]
metabolite detected in rat liver [1]: detected in rat liver
metabolite detected in rat mammary tissue [1]: not in serum or mammary tissue

CNCCCn1c2c(c3ccc(N)cc3c1=O)C(O)c1ccccc1-2 (centres unmarked) [Compound 34]
concentration range of NFκB inhibition, in words [2]: sub-µM concentrations

Nc1ccc2c3c(n(CCCO)c(=O)c2c1)-c1ccccc1C3=O [Compound 7, 6-(3-Hydroxypropyl)-3-amino-5H-indeno[1,2-c]isoquinoline-5,11(6H)dione]
metabolite detected in rat liver [1]: detected in rat liver
metabolite detected in rat mammary tissue [1]: not in serum or mammary tissue

CNc1ccc2c3c(n(CCCNC(=O)OC(C)(C)C)c(=O)c2c1)-c1ccccc1C3O (centres unmarked) [Compound 27]
concentration range of NFκB inhibition, in words [2]: sub-µM concentrations

CNc1ccc2c3c(n(CCCN)c(=O)c2c1)-c1ccccc1C3O (centres unmarked) [Compound 29]
concentration range of NFκB inhibition, in words [2]: sub-µM concentrations

CC(=O)Nc1ccc2c3c(n(CCCN)c(=O)c2c1)-c1ccccc1C3O (centres unmarked) [Compound 6, N-[6-(3-Aminopropyl)-11-hydroxy-5-oxo-6,11-dihydro-5H-indeno[1,2-c]isoquinolin-3-yl]acetamide]
metabolite observed in vivo using rats [1]: all except 6 and 10 were observed in vivo

NCCCn1c2c(c3ccc(N)cc3c1=O)C(=O)c1ccccc1-2 [Compound 3, 3-amino-6-(3'-aminopropyl)-5H-indeno[1,2-c]isoquinoline-5,11-(6H)dione]
formation of glutathione conjugates (electrophilic metabolites) [3]: no evidence of glutathione conjugates
concentration in liver [4]: 4.3 µg/g
concentration in mammary gland [4]: 0.3 µg/g
concentration in serum [4]: 800 ng/mL
elimination rate constant ([5]; 1 µM, 1 mg protein/mL, 60 min): 0.0053
CLint scaled at 1 µM ([5]; both, human, microsomes, pH 7.4): 5.33 mL/min/kg
RXRE Highest IR (maximum induction ratio) [6]: 7.67±0.37
absolute activity induced (firefly luciferase, not normalized) [6]: 40.5 ± 5.4 fold
RXRE induction ([6]; 24 h incubation, 5 µM): ~ 160 fold
induction ratio normalized on Renilla luciferase activity ([6]; 24 h incubation, Figure 9): exceeded 100 fold
maximum enhancement of RXRE transcriptional activity [6]: 5 fold

Nc1ccc2c3c(n(CCCO)c(=O)c2c1)-c1ccccc1C3O (centres unmarked) [Compound 8, 3-Amino-11-hydroxy-6-(3-hydroxypropyl)-6,11-dihydro-5H-indeno[1,2-c]isoquinolin-5-one]
activity as inhibitor of NFκB, in words [2]: inhibited activity as high concentrations
metabolite detected in rat liver [1]: detected in rat liver
metabolite detected in rat mammary tissue [1]: not in serum or mammary tissue

NCCCn1c2c(c3ccc(N)cc3c1=O)C(O)c1ccccc1-2 (centres unmarked) [Compound 4, 3-Amino-6-(3-aminopropyl)-11-hydroxy-6,11-dihydro-5H-indeno[1,2-c]isoquinolin-5-one]
chemical stability [7]: rather unstable and slowly oxidized back to 3
metabolite detected in rat liver [1]: detected in rat liver
metabolite detected in rat mammary tissue [1]: not in serum or mammary tissue

CC(=O)Nc1ccc2c3c(n(CCCN)c(=O)c2c1)-c1ccccc1C3=O [Compound 5, N-[6-(3-Aminopropyl)-5,11-dioxo-6,11-dihydro-5H-indeno[1,2-c]isoquinolin-3-yl]acetamide]
activity as inducer of RXRE transcriptional activity, in words [6]: moderately active at high concentrations
metabolite detected in rat liver [1]: detected
metabolite detected in rat mammary tissue [1]: not in mammary tissue
metabolite detected in rat serum [1]: detected

C=C(c1ccc(C(=O)O)cc1)c1cc2c(cc1C)C(C)(C)CCC2(C)C [Compound 2, bexarotene, reference compound]
absolute activity induced (firefly luciferase, not normalized) [6]: 22.4 ± 3.1 fold
maximum enhancement of RXRE transcriptional activity [6]: 10 fold
RXRE IR ([6]; at 40 µM): 8.85±3.89
